Measurements reported in ChEMBL document CHEMBL1201862, “PubChem BioAssay data set” (2004).
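Values below derive from 48-hour exposures of cells grown in 96-well plates, with endpoints linearly interpolated between the two concentrations bracketing the appropriate inhibition level. GI50 is the concentration that inhibits growth by half.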 The source made the active and inactive calls. No stated cut-off is given here; in the data, active = GI50 up to about 1.1 µM and inactive = higher.

Key:
Test in all cases: inhibition of tumour cell growth, NCI panel, 48 h
LXFL 529 = system: LXFL 529
HOP-18 = system: HOP-18
DLD-1 = system: DLD-1
SNB-78 = system: SNB-78
DMS-273 = system: DMS-273
KM-20L2 = system: KM-20L2
M19-MEL = system: M19-MEL
XF498 = system: XF498
RXF 631 = system: RXF 631

Row | SMILES | GI50 (LXFL 529) | GI50 (HOP-18) | GI50 (DLD-1) | GI50 (SNB-78) | GI50 (DMS-273) | GI50 (KM-20L2) | GI50 (M19-MEL) | GI50 (XF498) | GI50 (RXF 631)
1 | Cc1nc(N(CCO)CCO)c2sc(=S)n(-c3ccccc3)c2n1 | > 100 µM (inactive) | > 100 µM (inactive) | > 100 µM (inactive) |  |  |  |  |  | 
2 | O=C1CCCCCCCCCCOC(=O)CCCCCCCCCCO1 | > 100 µM (inactive) | > 100 µM (inactive) | > 100 µM (inactive) | > 100 µM (inactive) | > 100 µM (inactive) | > 10 µM (inactive) | > 100 µM (inactive) |  | 
3 | Nc1ccc2c(c1)C1=NNC(=O)CC1C2 (configuration not stated) |  | > 77.6 µM (inactive) | > 100 µM (inactive) | > 100 µM (inactive) | > 100 µM (inactive) | > 100 µM (inactive) | > 100 µM (inactive) | > 100 µM (inactive) | 
4 | Cc1nc2c(nc1Cl)nc(Oc1ccc(Cl)cc1)c1ccccc12 | 51.4 µM (inactive) |  | 49.9 µM (inactive) | 59.4 µM (inactive) | 46.5 µM (inactive) | > 100 µM (inactive) | > 100 µM (inactive) | 73.3 µM (inactive) | > 100 µM (inactive)
5 | CC12CCC3C(CCC4CC(OC(=O)Cc5ccc(N(CCCl)CCCl)cc5)CCC43C)C1CCC(=O)N2 (configuration not stated) | 16.2 µM (inactive) | 17.3 µM (inactive) | 18.7 µM (inactive) | 24.4 µM (inactive) | 12.9 µM (inactive) | 17.4 µM (inactive) | 17.2 µM (inactive) | 16.5 µM (inactive) | 
6 | O=C1C2c3[nH]c4ccccc4c3C3CCSCC3C2C(=O)N1c1ccccc1 (configuration not stated) | > 100 µM (inactive) |  | > 100 µM (inactive) | > 100 µM (inactive) | > 100 µM (inactive) | > 100 µM (inactive) | > 100 µM (inactive) | > 100 µM (inactive) | 
7 | O=C(c1ccccc1)c1cc(Cl)ccc1NCn1nnc2ccccc21 | 98.9 µM (inactive) | > 100 µM (inactive) | > 100 µM (inactive) |  | 39.1 µM (inactive) | 60.4 µM (inactive) | 81.7 µM (inactive) | > 100 µM (inactive) | 
8 | CC(C)NC(=O)OCc1nnn2c1CCC2 | > 100 µM (inactive) |  | > 100 µM (inactive) | > 100 µM (inactive) |  | > 100 µM (inactive) | > 100 µM (inactive) | > 100 µM (inactive) | 
9 | C=C1CC(OC)(C(OC)C(=O)N[C@H]2OCO[C@H]3C2O[C@H](C[C@@H](COC)OC)C(C)(C)C3OC)O[C@H](C)[C@@H]1C (some centres not stated) |  | 2.08 µM (inactive) | 0.805 µM (active) | 1.11 µM (active) | 0.875 µM (active) | 0.931 µM (active) | 0.778 µM (active) | 0.604 µM (active) | 
10 | CC(=O)O[C@H]1CC[C@@]2(C)[C@H](CC[C@@H]3[C@@H]2CC[C@]2(C)[C@@H](c4ccc(=O)oc4)C[C@H]4O[C@]342)C1 |  | 0.423 µM (active) | 0.354 µM (active) | 0.404 µM (active) | 0.458 µM (active) | 1.38 µM (inactive) | 1.05 µM (active) | 1.3 µM (inactive) | 
